Patent US10577315B2, “Compositions and methods for treatment of prostate carcinoma” (Pellficure Pharmaceuticals, Inc., priority 2014, dated 2020)

System: PTEN-P2/GFP prostate cancer cells
Test: Effect of 1,4-naphthoquinone analogs on PTEN-P2/GFP cell proliferation (WST-1 cell viability, 24 h)
Assay type: cell-based
Conditions: Mus musculus, WST-1, medium with 10% FBS and DHT, read-out: PTEN-P2/GFP cell proliferation, percent of control
Protocol: Cells are grown in phenol red-free DMEM medium containing 10% FBS, 2 mM L-glutamine, 100 U/ml penicillin/100 μg/ml streptomycin, insulin-selenium-transferrin (5 μg/ml insulin), and DHT 10^−8M final. Androgen withdrawal is achieved by not adding DHT to the medium. Cells are maintained in a humidified incubator at 37° C. and 5% CO2. G418 (100 μg/ml) is added to maintain stable expression of H2B-GFP.
100 microliters of PTEN-P2/GFP prostate cancer cells were plated at a density of 8000 cells/well in 96-well plates (triplicates) in growing medium containing 10% Fetal Bovine Serum and DHT. The next day, increasing concentrations of a 1,4-naphthoquinone analog (diluted from 10 mM DMSO stock solutions) were added. DMSO used as solvent for all analogs, was kept constant through the 96-well plates. The control consisted of DMSO alone. The cells were subsequently incubated for 24 hours at 37° C. and 5% CO2 in normal cell growth conditions. Cell viability was assessed by adding 9 μL/well of WST-1 reagent (Clontech), which measured mitochondrial activity of live cells. […] The incubation time was 3 hours at 37° C. Optical density of the cell samples was measured at 460 nm, by using plate reader Spectra Max 250 (Molecular Devices). The drug was determined to be cytotoxic when OD values show an inverse correlation with analog concentrations. The results are shown in TABLES 3.1-3.4, FIGS. 2A-2E, and FIGS. 3A-3D.

SMILES | activity at 2 µM [%] | activity at 3 µM [%] | activity at 4 µM [%] | activity at 5 µM [%] | activity at 6 µM [%] | activity at 7 µM [%] | activity at 10 µM [%] | activity at 15 µM [%] | activity at 25 µM [%] | activity at 1.2 µM [%] | activity at 2.5 µM [%] | activity at 7.5 µM [%] | activity at 20 µM [%]
Cc1cccc(OC2=CC(=O)c3ccccc3C2=O)c1 [Analog F08, 2-(3-methylphenoxy)-1,4-naphthoquinone] | 102 | 101 | 99.4 | 92.2 | 83.9 | 68.8 | 30.8 | 12.8 | 9.66 | – | – | – | –
O=C1C=C(Oc2ccc3ccccc3c2)C(=O)c2ccccc21 [Analog F09, 2-(naphthalene-2-yloxy)-1,4-naphthoquinone] | – | – | – | 106 | – | – | 28.7 | 1.97 | – | 117 | 114 | 70 | 3.09
O=C1C=C(Oc2ccc(O)cc2)C(=O)c2ccccc21 [Analog F10, 2-(4-hydroxyphenoxy)-1,4-naphthoquinone] | 98.6 | 95.4 | 91.2 | 82.8 | 67.1 | 53.6 | 25.2 | 16.7 | 17.6 | – | – | – | –
CN(C)CCc1ccc(OC2=CC(=O)c3ccccc3C2=O)cc1 [Analog F11, 2-(4-(2-dimethylaminoethyl)phenoxy)-1,4-naphthoquinone] | 99.6 | 93.4 | 79.2 | 61.3 | 46 | 36.4 | 22.8 | 12.3 | 9.33 | – | – | – | –
O=C1C=C(Oc2ccc([N+](=O)[O-])cc2)C(=O)c2ccccc21 [Analog F12, 2-(4-nitrophenoxy)naphthalene-1,4-dione] | – | – | – | 118 | – | – | 115 | 78.8 | – | 122 | 118 | 117 | 8.27
O=C1C=C(Oc2ccc(Cl)cc2Cc2ccccc2)C(=O)c2ccccc21 [Analog F13, 2-(2-benzyl-4-chlorophenoxy)naphthalene-1,4-dione] | – | – | – | 60.5 | – | – | 1.69 | 2.19 | – | 129 | 119 | 17.5 | 2.53
O=C1C=C(Oc2ccc(Cl)cc2)C(=O)c2ccccc21 [Analog F14, 2-(4-chlorophenoxy)naphthalene-1,4-dione] | – | – | – | 86.2 | – | – | 19.2 | 1.27 | – | 100 | 92.3 | 71 | 2.3
Cc1cc(OC2=CC(=O)c3ccccc3C2=O)ccc1Cl [Analog F15, 2-(4-chloro-3-methylphenoxy)naphthalene-1,4-dione] | – | – | – | 97.1 | – | – | 4.3 | 1.67 | – | 95.6 | 89 | 55.5 | 2.4
COc1ccc(OC2=CC(=O)c3ccccc3C2=O)c(Cl)c1 [Analog F16, 2-(2-chloro-4-methoxyphenoxy)naphthalene-1,4-dione] | – | – | – | 82.5 | – | – | 0.73 | 1.43 | – | 92.8 | 97 | 12 | 2.3
O=C1C=C(Oc2cc(F)cc(F)c2)C(=O)c2ccccc21 [Analog F17, 2-(3,5-difluorophenoxy)naphthalene-1,4-dione] | – | – | – | 88.7 | – | – | 71.5 | 1.07 | – | 97 | 91.8 | 78.2 | 2.53
O=C1C(Br)=C(Oc2ccccc2)C(=O)c2ccccc21 [Analog F18, 2-bromo-3-phenoxy-1,4-naphthoquinone] | 96.6 | 92.5 | 85.5 | 69.8 | 53.5 | 45 | 20.3 | 11.1 | 9.64 | – | – | – | –
COC(=O)c1ccccc1OC1=C(Br)C(=O)c2ccccc2C1=O [Analog F19, methyl 3-bromo-1,4-naphthoquinon-2-yl-salicylate] | 99.5 | 94.3 | 85.2 | 81 | 68.2 | 59.3 | 32.3 | 20.1 | 12.1 | – | – | – | –
O=C1C(Oc2ccccc2)=C(Oc2ccccc2)C(=O)c2ccccc21 [Analog F21, 2,3-diphenoxy-1,4-naphthoquinone] | 102 | 92.9 | 92.9 | 92.9 | 61.8 | 54.4 | 26.1 | 16.2 | 16.3 | – | – | – | –
O=C1C(Oc2c(F)cc(F)cc2F)=C(Oc2c(F)cc(F)cc2F)C(=O)c2ccccc21 [Analog F22, 2,3-bis(2,4,6-trifluorophenoxy)naphthalene-1,4-dione] | – | – | – | 105 | – | – | 104 | 105 | – | 91.2 | 103 | 107 | 101
O=C1C(Oc2ccc(O)cc2)=C(Oc2ccc(O)cc2)C(=O)c2ccccc21 [Analog F24, 2,3-bis(4-hydroxyphenoxy)-1,4-naphthoquinone] | – | – | – | 57.6 | – | – | 8.07 | 6.73 | – | 111 | 87.1 | 30.9 | 3.73
O=C(NCCCl)Oc1ccc(OC2=C(Oc3ccc(OC(=O)NCCCl)cc3)C(=O)c3ccccc3C2=O)cc1 [Analog F34, 2,3-bis(4-((2-chloroethyl)carbamoyloxy)phenoxy)-1,4-naphthoquinone] | 74.5 | 49.6 | 35.8 | 26 | 19.3 | 17.2 | 14.2 | 14.2 | 14.5 | – | – | – | –
CC(=O)NC1=C(Cl)C(=O)c2ccccc2C1=O [Analog F37, 2-N-acetylamino-3-chloro-1,4-naphthoquinone] | 101 | 94.4 | 86.6 | 71.4 | 55.7 | 36.7 | 17.6 | 13.9 | 13.6 | – | – | – | –
CC(=O)NC1=C(Oc2ccccc2)C(=O)c2ccccc2C1=O [Analog F38, N-(1,4-dioxo-3-phenoxy-1,4-dihydronaphthalen-2-yl)acetamide] | 95.8 | 87 | 71.7 | 54 | 41 | 30.7 | 16.6 | 14.7 | 14.3 | – | – | – | –
CC(=O)NC1=C(Oc2ccc(Cl)cc2)C(=O)c2ccccc2C1=O [Analog F39, N-(3-(4-chlorophenoxy)-1,4-dioxo-1,4-dihydronaphthalen-2-yl)acetamide] | 102 | 82.2 | 70.6 | 57.5 | 41.5 | 29.4 | 14.3 | 12 | 12.7 | – | – | – | –
